Results from patent US20220348592A1, “FUSED HETEROCYCLIC DERIVATIVES” (Janssen Sciences Ireland Unlimited Company, priority 2019, published 2022).

Key:
[1] = Cytotoxicity in HepG2.117 cells, ATPlite Luminescence Assay; format: cell-based, human; conditions: human, incubated for 3 days, mean value, read-out: TOX-HepG2.117 CC50 (μM, mean value)
Procedure: Cytotoxicity of the compounds was tested using HepG2 or HepG2.117 cells, incubated for 3 days in the presence of compounds. The viability of the cells was assessed using the PERKIN ELMER ATPlite Luminescence Assay System.”

HBV = experiment: Anti-HBV activity: intracellular HBV DNA by real-time PCR in HepG2.117 cell line; format: cell-based, Hepatitis B virus; conditions: Hepatitis B virus, 72 h; HepG2.117 cells, 3 days of treatment, intracellular HBV DNA by real-time PCR, mean value; read-out: HBV-AVE-HepG2.117 EC50 (μM, mean value)
Procedure: The anti HBV activity was measured using the HepG2.117 cell line, a stable, inducibly HBV producing cell line, which replicates HBV in the absence of doxicycline (Tet-off system). The HepG2 cell line is available from ATCC® under number HB-8065. Transfection of the HepG2 cell line can be as described in Sun and Nassal 2006 Journal of Hepatology 45 (2006) 636-645 “Stable HepG2- and Huh7-based human hepatoma cell lines for efficient regulated expression of infectious hepatitis B virus”.
For the antiviral assay, HBV replication was induced, followed by a treatment with serially diluted compound in 96-well plates. After 3 days of treatment, the antiviral activity was determined by quantification of intracellular HBV DNA using real-time PCR and an HBV specific primer set and probe.

Row | Compound | CC50 at 3 days [1] [µM] | EC50 (HBV) [µM]
1 | COc1ccc(CN2CCn3nc4c(c3C2=O)CN(C(=O)c2ccc(F)c(C)c2)CC4)cc1 [Example C49] | 20.6 | 0.274
2 | COc1ccc(CN2CCn3nc4c(c3C2=O)CN(C(=O)c2ccc(F)c(C#N)c2)CC4)cc1 [Example C52] | > 50 | 0.995
3 | COc1ccc(CN2CCn3nc4c(c3C2=O)CN(C(=O)c2ccc(C)c(F)c2)CC4)cc1 [Example C53] | 20.4 | 1.08
4 | COc1ccc(CN2CCn3nc4c(c3C2=O)CN(C(=O)c2cccc(Cl)c2)CC4)cc1 [Example C54] | 13.6 | 1.99
5 | COc1ccc(CN2CCn3nc4c(c3C2=O)CN(C(=O)c2cc(F)c(F)c(F)c2)CC4)cc1 [Example C56] | 28.4 | 0.962
6 | COc1ccc(CN2CCn3nc4c(c3C2=O)CN(C(=O)c2ccc(Cl)c(C(F)F)c2)CC4)cc1 [Example C57] | 18.9 | 0.04
7 | COc1ccc(CCN2CCn3nc4c(c3C2=O)CN(C(=O)c2ccc(Cl)c(Cl)c2)[C@H](C)C4)cc1 [Example C58] | 18 | 0.531
8 | C[C@@H]1Cc2nn3c(c2CN1C(=O)c1ccc(Cl)c(Cl)c1)C(=O)N(Cc1ncccn1)CC3 [Example C60] | > 50 | 0.565
9 | COc1ccc(CN2CCn3nc4c(c3C2=O)CN(C(=O)c2ccc(C(F)F)c(Cl)c2)CC4)cc1 [Example C62] | 9.31 | 0.13
10 | COc1ccc(CN2CCn3nc4c(c3C2=O)CN(C(=O)c2ccc(Cl)c(C#N)c2)CC4)cc1 [Example C64] | > 49 | 0.089
11 | C[C@@H]1Cc2nn3c(c2CN1C(=O)c1ccc(Cl)c(Cl)c1)C(=O)N(Cc1cnccn1)CC3 [Example C65] | > 50 | 0.299
12 | C[C@@H]1Cc2nn3c(c2CN1C(=O)c1ccc(Cl)c(Cl)c1)C(=O)N(Cc1cccc(OC(F)F)c1)CC3 [Example C66] | 9.18 | 0.042
13 | C[C@@H]1Cc2nn3c(c2CN1C(=O)c1ccc(Cl)c(Cl)c1)C(=O)N(Cc1ccccc1OC(F)F)CC3 [Example C67] | 22.5 | 0.07
14 | COc1ccc(CN2CCn3nc4c(c3C2=O)CN(C(=O)c2ccc(C(F)F)c(F)c2)CC4)cc1 [Example C68] | 10.6 | 0.321
15 | C[C@@H]1Cc2nn3c(c2CN1C(=O)c1ccc(Cl)c(Cl)c1)C(=O)N(Cc1ccc(OC(F)F)cn1)CC3 [Example C69] | 14.5 | 0.063
16 | COc1ccc(CN2CCn3nc4c(c3C2=O)CN(C(=O)c2ccc(C(F)F)c(C#N)c2)CC4)cc1 [Example C70] | > 50 | 0.232
17 | O=C(c1ccc(Cl)cc1F)N1CCc2nn3c(c2C1)C(=O)N(Cc1ccccn1)CC3 [Example C72] | > 50 | > 2.5
18 | O=C(c1cnc(Cl)c(Cl)c1)N1CCc2nn3c(c2C1)C(=O)N(Cc1ccccn1)CC3 [Example C73] | > 50 | > 2.5
19 | Cc1cc(Cl)ccc1C(=O)N1CCc2nn3c(c2C1)C(=O)N(Cc1ccccn1)CC3 [Example C74] | > 50 | > 2.5
20 | COc1cc(Cl)ccc1C(=O)N1CCc2nn3c(c2C1)C(=O)N(Cc1ccccn1)CC3 [Example C76] | > 25 | 0.983
21 | O=C(c1ccc(Cl)c(F)c1)N1CCc2nn3c(c2C1)C(=O)N(Cc1ccccn1)CC3 [Example C78] | > 50 | 0.707
22 | C[C@@H]1Cc2nn3c(c2CN1C(=O)c1ccc(Cl)c(Cl)c1)C(=O)N(Cc1ccccc1F)CC3 [Example C80] | 26.1 | 0.05
23 | C[C@@H]1Cc2nn3c(c2CN1C(=O)c1ccc(Cl)c(Cl)c1)C(=O)N(Cc1ccc(C#N)cc1)CC3 [Example C82] | 32.5 | 0.019
24 | O=C(c1ccc(Cl)c(Cl)c1)N1CCc2nn3c(c2C1)C(=O)N(Cc1ccccn1)CCC3 [Example C83, 2-(3,4-dichlorobenzoyl)-10-(pyridin-2-ylmethyl)-1,2,3,4,7,8,9,10-octahydro-11H-pyrido[4′,3′:3,4]pyrazolo[1,5-a][1,4]diazepin-11-one] | > 50 | 0.229
25 | COc1ccc(C(C)N2CCn3nc4c(c3C2=O)CN(C(=O)c2ccc(Cl)c(Cl)c2)[C@H](C)C4)cc1F (stereo partly drawn) [Example C86] | > 50 | 0.046
26 | CC(c1cc[nH]n1)N1CCn2nc3c(c2C1=O)CN(C(=O)c1ccc(Cl)c(Cl)c1)[C@H](C)C3 (stereo partly drawn) [Example C87] | > 50 | 0.066

Row | Compound | CC50 at 3 days [1] [µM] | EC50 (HBV) [µM]
27 | CC(c1ccc(C#N)cc1)N1CCn2nc3c(c2C1=O)CN(C(=O)c1ccc(Cl)c(Cl)c1)[C@H](C)C3 (stereo partly drawn) [Example C88] | > 48 | 0.038
28 | C[C@@H]1Cc2nn3c(c2CN1C(=O)c1ccc(Cl)c(Cl)c1)C(=O)N(C(C)(C)c1ccc(OC(F)F)cc1)CC3 [Example C90] | 21.9 | 0.667
29 | C[C@@H]1Cc2nn3c(c2CN1C(=O)c1ccc(Cl)c(Cl)c1)C(=O)N(Cc1ccc(Cl)nc1)CC3 [Example C91] | 36.7 | 0.083
30 | COc1ccc(C(C)N2CCn3nc4c(c3C2=O)CN(C(=O)c2ccc(Cl)c(Cl)c2)[C@H](C)C4)cc1OC (stereo partly drawn) [Example C92] | 24.4 | 0.025
31 | CC(c1ccccc1)N1CCn2nc3c(c2C1=O)CN(C(=O)c1ccc(Cl)c(Cl)c1)[C@H](C)C3 (stereo partly drawn) [Example C93] | 30 | 0.055
32 | C[C@@H]1Cc2nn3c(c2CN1C(=O)c1cc2c(Cl)c(Cl)ccc2[nH]1)C(=O)N(Cc1ccccn1)CC3 [Example C94, (R)-2-(4,5-dichloro-1H-indole-2-carbonyl)-3-methyl-9-(pyridin-2-ylmethyl)-1,2,3,4,8,9-hexahydropyrido[4′,3′:3,4]pyrazolo[1,5-a]pyrazin-10(7H)-one] | 4.77 | 0.162
33 | C[C@@H]1Cc2nn3c(c2CN1C(=O)c1ccc(Cl)c(Cl)c1)C(=O)N(Cc1cccc(F)c1C#N)CC3 [Example C95] | > 47 | 0.2
34 | C[C@@H]1Cc2nn3c(c2CN1C(=O)c1cc2c(Cl)cccc2[nH]1)C(=O)N(Cc1ccccn1)CC3 [Example C96] | 10.7 | 0.025
35 | C[C@@H]1Cc2nn3c(c2CN1C(=O)c1cc2c(F)c(F)c(F)cc2[nH]1)C(=O)N(Cc1ccccn1)CC3 [Example C97] | 9.79 | 0.011
36 | CC(c1ccc(Br)cc1)N1CCn2nc3c(c2C1=O)CN(C(=O)c1ccc(Cl)c(Cl)c1)[C@H](C)C3 (stereo partly drawn) [Example C98] | 9.83 | 0.073
37 | CC(c1ccccn1)N1CCn2nc3c(c2C1=O)CN(C(=O)c1ccc(Cl)c(Cl)c1)[C@H](C)C3 (stereo partly drawn) [Example C99] | > 50 | 0.072
38 | C[C@@H]1Cc2nn3c(c2CN1C(=O)c1cc2c(C#N)c(F)ccc2[nH]1)C(=O)N(Cc1ccccn1)CC3 [Example C100] | 15.5 | 0.085
39 | C[C@@H]1Cc2nn3c(c2CN1C(=O)c1cc2c(F)c(F)ccc2[nH]1)C(=O)N(Cc1ccccn1)CC3 [Example C101] | 8.95 | 0.036
40 | C[C@@H]1Cc2nn3c(c2CN1C(=O)c1cc2c(Cl)c(F)ccc2[nH]1)C(=O)N(Cc1ccccn1)CC3 [Example C102] | 7.14 | 0.019
41 | CC(c1cncnc1)N1CCn2nc3c(c2C1=O)CN(C(=O)c1ccc(Cl)c(Cl)c1)[C@H](C)C3 (stereo partly drawn) [Example C103] | > 50 | 0.39
42 | C[C@@H]1Cc2nn3c(c2CN1C(=O)c1ccn2cc(C(F)(F)F)nc2c1)C(=O)N(Cc1ccccn1)CC3 [Example C104] | > 50 | 0.632
43 | COc1ccc(CN2CCn3nc4c(c3C2=O)CN(C(=O)c2ccc(Cl)c(Cl)c2)[C@H](C)C4)cn1 [Example C106] | 33.8 | 0.031
44 | Cc1c(F)ccc2[nH]c(C(=O)N3Cc4c(nn5c4C(=O)N(Cc4ccccn4)CC5)C[C@H]3C)cc12 [Example C107] | 13.2 | 0.015
45 | C[C@@H]1Cc2nn3c(c2CN1C(=O)c1cc2c(F)ccc(F)c2[nH]1)C(=O)N(Cc1ccccn1)CC3 [Example C108] | 20 | 0.085
46 | Cc1cc(F)cc2[nH]c(C(=O)N3Cc4c(nn5c4C(=O)N(Cc4ccccn4)CC5)C[C@H]3C)cc12 [Example C109] | 18.9 | 0.013
47 | C[C@@H]1Cc2nn3c(c2CN1C(=O)c1cc2c(F)cc(F)cc2[nH]1)C(=O)N(Cc1ccccn1)CC3 [Example C110] | 16 | 0.017
48 | Cc1cc(C(=O)N2Cc3c(nn4c3C(=O)N(Cc3ccccn3)CC4)C[C@H]2C)ccc1Cl [Example C111] | > 50 | 0.086
49 | C[C@@H]1Cc2nn3c(c2CN1C(=O)c1ccc(Cl)c(C(F)(F)F)c1)C(=O)N(Cc1ccccn1)CC3 [Example C112] | > 50 | 0.025
50 | C[C@@H]1Cc2nn3c(c2CN1C(=O)c1ccc(OC(F)F)c(Cl)c1)C(=O)N(Cc1ccccn1)CC3 [Example C113] | > 50 | 0.257
51 | Cc1ccc(F)c2[nH]c(C(=O)N3Cc4c(nn5c4C(=O)N(Cc4ccccn4)CC5)C[C@H]3C)cc12 [Example C114] | 30.9 | 0.048
